From US8846914B2, “Compositions to effect neuronal growth” (Neuralstem, Inc., priority 2003, dated 2014)
Where two headings read alike, the source gives them in different places. One block for each compound: values may come before it.

Legend:
Type in all cases: cell-based
[1] = test system: human hippocampal stem cells; assay: Neurogenesis, TuJ1 immunostaining / Hoechst (primary screen); details: seven days of compound treatment; for Neuron Number (% of Control): TuJ1+ neurons per area; for Neuron Ratio (% of Control): ratio neuron:total cells (TuJ1/Hoechst)
Text: FIG. 2 is a bar graph illustrating an example of a neurogenesis profile of compounds selected from primary screening. After seven days of compound treatment, the cells were stained with the neuron-specific anti-tubulin IIIb antibody. TuJ1, for neurons and Hoechst for all cell nuclei. Shown are the relative ratio of neuron: total cells for each compound over the vehicle control in percentage. Typical ratio for vehicle control is 40-50% neurons. The ratio can change by either increased differentiation of stem cells to neurons, decreased proliferation of astrocytes, or increased proliferation of neuronal progenitors.
FIG. 3 is a bar graph illustrating an example of a neurogenesis profile of compounds selected from primary screening. After seven days of compound treatment, the cells were stained with TuJ1 for neurons. The number of TuJ1+ neurons per area was quantified and expressed as a relative value to the vehicle treated control.
The final neuron number is detected by immunostaining of the culture with antibodies against neurons and is quantified by counting of the immunopositive neurons and/or by measuring the staining intensity. Therefore, after seven days of compound treatment, the cells are stained with the neuron-specific anti-tubulin IIIb antibody, TuJ1, for neurons and Hoechst for all cell nuclei. The number of TuJ1+ neurons per area is quantified and expressed as a value relative to the vehicle-treated control of Hoechst-stained cells. In this regard, the medium is removed from the wells by decanting and blotting the plates on paper towels. The cells are then fixed in 100 μl of 4% paraformaldehyde per well for thirty minutes at room temperature. The cells are washed three times with 400 μl per well of phosphate-buffered saline (PBS) at pH 7.5 for approximately ten minutes per wash. The plates are then stored at 4° C. in PBS or used immediately for staining.
The cells are subsequently stained with antibodies against neuron-specific antigens according to standard procedures. The staining process includes decanting the PBS and blocking the cells with 100 μl of 5% Normal Goat Serum (NGS) in PBS for one hour at room temperature. The NGS/PBS is decanted and the plates are blotted on a paper towel. The cells are then permeabilized with 0.1% Triton X-100 in PBS for 30 minutes at room temperature.
Typical neuron-specific antigens include Type III-beta tubulin and MAP-2c. The total cell number in each well was quantified by staining the cultures with a nuclear dye such as DAPI or Hoechst according to standard procedures. Therefore, once the cells are permeabilized, 20 μl of TuJ1, monoclonal antibody against neuronal class 111 β-tubulin (CoVance (BabCo) MMS-435P) and 32 μl of anti-GFAP polyclonal (DAKO Z0334) are added to and mixed of PBS with 5% NGS. Final dilutions of TuJ1 and anti-GFAP are 1:400 and 1:250, respectively. 90 μl of the antibody solution is added to each well except two eleventh column. 90 μl of PBS/5% NGS is added to the eleventh column and no cells are added to the twelfth column. The plate(s) are sealed with parafilm and incubated at 4° C. overnight.
After incubating the cells overnight, the antibody solution is decanted and 200 μl of PBS/0.1% Triton X-100 is added to the wells. The plate(s) are placed on a shaker and incubated at room temperature with gentle shaking for ten minutes. The cells are again washed with the PBS/Triton X-100 solution another two times.
Following staining with TuJ1 and anti-GFAP, 20 μl of Alexa Fluor 488 labeled goat anti-moose IgG (H+L) (Molecular Probes A-11001) and 100 μl of LRSC-IgG, goat anti-rabbit (Jackson Immune 111-295-144) is added and mixed with 10 ml of PBS/5% NGS. 100 μl of the resulting antibody solution is added to each well. The plate(s) are covered with foil and incubated with gentle shaking for up to one hour at room temperature. The cells are again washed as described above with PBS and an Triton X-100. […]

[2] = test system: Differentiating human hippocampal stem cells; assay: Neurogenesis dose-response profile; details: Homo sapiens, Neuron, 168 h; for activity at 0.3 µM: @300 nM; for EC50: seven days, 100 pM to 100 μM; for activity at 30 µM: @30000 nM; for activity at 10 µM: @10000 nM; for activity at 1 µM: @1000 nM; for activity at 3 µM: @3000 nM
Method: FIG. 4 is a line graph illustrating an example of a neurogenesis dose-response profile of selected compounds. Differentiating human hippocampal stem cells were treated for seven days with varying concentrations of “primary hits”. Subsequently, the cells were fixed, stained with anti-beta tubulin antibody, and positive cells were quantified by Array Scan II. Shown are the number of neurons after each treatment normalized against the no-compound control.
In another in vitro assay, compounds are tested as above at varying concentrations to obtain a dose-response curve and EC50 values (effective concentration of the compound which produces 50% of the maximum possible response for that compound).
Primary dose-response profiles and secondary functional assays are used to further eliminate compounds from the primary screen based on a lack of dose-dependent effect on neurogenesis, indicated by lack of linearity of dose-response, and in vitro neurotoxicity. The dose-response curve measures neurogenesis over a concentration range of 100 pM to 100 μM. […] Table II contains the summary of EC50 of each compound tested.

[3] = test system: Differentiating hippocampal human stem cells; assay: Long-term treatment in vitro neurogenesis; details: for activity at 10 µM: Homo sapiens, 504 h, three weeks, 5× with 10 μM, compared to the control; for Further increase in neuron numbers over long-term treatment: FIG. 11, compared to one week of treatment
Method: FIG. 11 is a bar graph illustrating an example of in vitro neurogenesis profile of the compounds for a long-term treatment. Differentiating hippocampal human stem cells mere treated with vehicle alone or with the test compounds for three weeks. Increase in cell number was determined compared to the control. Shown are several examples that are effective in continued neurogenesis. Bars represent mean+/−SD from six wells.
In another in vitro assay, compounds of the fused imidazole, iminopyrimidine, nicotinamide, aminomethyl phenoxypiperidine and aryloxypiperidine types are evaluated for their effect on the differentiation of the culture-born cells to mature neurons. More particularly, multipotent human hippocampal stem cells are treated in three doses over a one-week period in N2b media and in the presence of an agent of the type mentioned above. The cells are then fed twice weekly for approximately two more weeks in N2b or Neuralbasal+B27 Media (Gibco) and then cells are fixed using 4% paraformaldehyde. Cells are washed 3× with PBS (pH 7.4) and then stained using a nuclear stain (Hoechst or DAPI) and a mature neuronal marker, MAP-2ab (AP-20) antibody. A secondary antibody, Alexa Fluor 488 labeled goat anti-mouse IgG, is used to identify by fluorescent labeling the mature neurons. The fluorescent intensity and number of cells labeled in a multi-plate format can be measured using for instance a Array Scan II (Cellomics) or similar instrumentation.
Effects of the long-term NSI compound treatment on human hippocampal stem cells in the absence of mitogen is illustrated in FIG. 11. In FIG. 11, differentiating hippocampal human stem cells are treated with vehicle alone or with the test compounds for three weeks. Increase in cell number was determined compared to the control. Bars represent mean+/−SD from six wells. […] Several examples of NSI compounds are shown to be effective in continued neurogenesis. […] These agents comprise a class of compounds, aminopyrimidines, that, as shown previously, inhibited apoptosis. Accordingly, the aminopyrimidine class of compounds appear ideally suited for neurodegenerative long-term diseases including Alzheimer's disease and aging. Neurogenic agents that are neuroprotective like the sixteen compounds identified above might also be effective therapeutics for other neurodegenerative diseases in mammals including, but not limited to, stroke, traumatic brain injury, Parkinson's disease, and mild cognitive impairment.

[4] = normalized against no-compound control, read-out: Neuron# Eff
[5] = read-out: Long Term Treatment #Neur
[6] = read-out: Long Term Treatment Neur Ratio
[7] = read-out: Long Term Treatment Prolif

EC50 [2]: 0.07 nM
SMILES: CCCCNc1c(C2CCN(C(=O)CN(CC(C)C)S(C)(=O)=O)CC2)nc2cnccn12 [NSI-106]
Neuron Number (% of Control) [1]: 77 ± 12 % of Control
Neuron Ratio (% of Control) [1]: 92 ± 6 % of Control
activity at 0.1 µM ([2]; @100 nM, read-out: % Neuron Ratio Eff): 165%
activity at 0.3 µM [2, 4]: 157%
activity at 10 µM [3, 5]: 137 ± 8%
activity at 10 µM [3, 6]: 120 ± 5%
activity at 10 µM [3, 7]: 92 ± 3%

EC50 [2]: 1.5 nM
SMILES: CS(=O)(=O)N1CCCCC1C(=O)NCc1ccc(Nc2c(C3CC3)nc3ccccn23)cc1 (centres unmarked) [NSI-127]
Neuron Number (% of Control) [1]: 81 ± 13 % of Control
Neuron Ratio (% of Control) [1]: 104 ± 8 % of Control
activity at 0.01 µM ([2]; @10 nM, read-out: % Neuron Ratio Eff): 114%
activity at 30 µM [2, 4]: 137%
activity at 10 µM [3, 5]: 135 ± 21%
activity at 10 µM [3, 6]: 131 ± 15%
activity at 10 µM [3, 7]: 103 ± 8%

EC50 [2]: 2160 nM
SMILES: COc1ccc(CCNc2ncc(C(N)=O)c(NC3CC3)n2)cc1OC [NSI-130]
Neuron Number (% of Control) [1]: 124 ± 8 % of Control
Neuron Ratio (% of Control) [1]: 128 ± 4 % of Control
activity at 10 µM [2, 4]: 202%
activity at 30 µM ([2]; read-out: % Neuron Ratio Eff): 144%
Further increase in neuron numbers over long-term treatment [3]: effective in stimulating further increases in neuron numbers
activity at 10 µM [3, 5]: 128 ± 30%
activity at 10 µM [3, 6]: 92 ± 12%
activity at 10 µM [3, 7]: 115 ± 11%

EC50 [2]: > 1000 nM
SMILES: CCCNc1ncc(C(N)=O)c(NC2CCCC2)n1 [NSI-137]
Neuron Number (% of Control) [1]: 151 ± 40 % of Control
Neuron Ratio (% of Control) [1]: 116 ± 8 % of Control
activity at 30 µM [2, 4]: 145%
activity at 30 µM ([2]; read-out: % Neuron Ratio Eff): 126%
activity at 10 µM [3, 5]: 139 ± 35%
activity at 10 µM [3, 6]: 98 ± 18%
activity at 10 µM [3, 7]: 111 ± 10%

EC50 [2]: 0.001 nM
SMILES: O=C(c1cccnc1N1CCNCC1)N1CCN(Cc2ccncc2)CC1 [NSI-142]
Neuron Number (% of Control) [1]: 152 ± 22 % of Control
Neuron Ratio (% of Control) [1]: 125 ± 15 % of Control
activity at 30 µM [2, 4]: 175%
activity at 30 µM ([2]; read-out: % Neuron Ratio Eff): 123%
activity at 10 µM [3, 5]: 146 ± 34%
activity at 10 µM [3, 6]: 120 ± 21%
activity at 10 µM [3, 7]: 105 ± 26%

EC50 [2]: 4.8 nM
SMILES: O=C(NC1CCN(Cc2ccccc2)CC1)c1cccnc1N1CCNCC1 [NSI-143]
Neuron Number (% of Control) [1]: 143 ± 6 % of Control
Neuron Ratio (% of Control) [1]: 130 ± 14 % of Control
activity at 30 µM [2, 4]: 115%
activity at 30 µM ([2]; read-out: % Neuron Ratio Eff): 112%
activity at 10 µM [3, 5]: 102 ± 14%
activity at 10 µM [3, 6]: 103 ± 12%
activity at 10 µM [3, 7]: 153 ± 33%

EC50 [2]: 13.5 nM
SMILES: NC(=O)c1cnc(NCc2ccc(Cl)cc2)nc1NCC1CCCCC1 [NSI-144]
Neuron Number (% of Control) [1]: 179 ± 29 % of Control
Neuron Ratio (% of Control) [1]: 137 ± 8 % of Control
activity at 0.3 µM [2, 4]: 186%
activity at 0.3 µM ([2]; read-out: % Neuron Ratio Eff): 138%
Further increase in neuron numbers over long-term treatment [3]: effective in stimulating further increases in neuron numbers
activity at 10 µM [3, 5]: 170 ± 46%
activity at 10 µM [3, 6]: 123 ± 12%
activity at 10 µM [3, 7]: 97 ± 21%

EC50 [2]: < 0.1 nM
SMILES: CCCCNc1c(C2CCN(C(=O)c3ccc(C#N)cc3)CC2)nc2ccccn12 [NSI-149]
Neuron Number (% of Control) [1]: 113 ± 16 % of Control
Neuron Ratio (% of Control) [1]: 100 ± 6 % of Control
activity at 1 µM [2, 4]: 124%
activity at 1 µM ([2]; read-out: % Neuron Ratio Eff): 111%
activity at 10 µM [3, 5]: 171 ± 19%
activity at 10 µM [3, 6]: 143 ± 11%
activity at 10 µM [3, 7]: 89 ± 13%

EC50 [2]: 85 nM
SMILES: C=CCNC(=O)c1cccnc1NCc1ccccc1OC [NSI-150]
Neuron Number (% of Control) [1]: 107 ± 29 % of Control
Neuron Ratio (% of Control) [1]: 99 ± 6 % of Control
activity at 3 µM [2, 4]: 227%
activity at 30 µM ([2]; read-out: % Neuron Ratio Eff): 112%
activity at 10 µM [3, 5]: 120 ± 10%
activity at 10 µM [3, 6]: 105 ± 7%
activity at 10 µM [3, 7]: 110 ± 25%

EC50 [2]: > 1000 nM
SMILES: CC(C)(C)OC(=O)NCCNC(=O)c1cccnc1NCC1CCCCC1 [NSI-157]
Neuron Number (% of Control) [1]: 135 ± 15 % of Control
Neuron Ratio (% of Control) [1]: 142 ± 6 % of Control
activity at 10 µM [2, 4]: 113%
activity at 30 µM ([2]; read-out: % Neuron Ratio Eff): 146%
activity at 10 µM [3, 5]: 139 ± 43%
activity at 10 µM [3, 6]: 107 ± 22%
activity at 10 µM [3, 7]: 146 ± 19%

EC50 [2]: 0.2 nM
SMILES: NC(=O)C1CCCN1C(=O)c1cccnc1NCC1CCCCC1 (centres unmarked) [NSI-158]
Neuron Number (% of Control) [1]: 93 ± 17 % of Control
Neuron Ratio (% of Control) [1]: 106 ± 9 % of Control
activity at 0.3 µM [2, 4]: 145%
activity at 3 µM ([2]; read-out: % Neuron Ratio Eff): 106%
activity at 10 µM [3, 5]: 141 ± 24%
activity at 10 µM [3, 6]: 114 ± 14%
activity at 10 µM [3, 7]: 99 ± 6%

SMILES: O=C(NCc1nc2ccccn2c1NCC1CCCO1)Oc1ccccc1 (centres unmarked) [NSI-182]
Neuron Number (% of Control) [1]: 95 ± 9 % of Control
Neuron Ratio (% of Control) [1]: 125 ± 10 % of Control
activity at 0.3 µM [2, 4]: 123%
activity at 10 µM ([2]; read-out: % Neuron Ratio Eff): 112%
EC50 [2]: 0.1 nM
activity at 10 µM [3, 5]: 121 ± 13%
activity at 10 µM [3, 6]: 111 ± 13%
activity at 10 µM [3, 7]: 95 ± 6%
